Here are results for two compounds from ChEMBL document CHEMBL5154787 (J Med Chem, 2022).

The target of assay [1] is T1, Homeodomain-interacting protein kinase 4 (Homo sapiens, UniProt Q8NE63).
T1 sequence (Q8NE63 whole entry): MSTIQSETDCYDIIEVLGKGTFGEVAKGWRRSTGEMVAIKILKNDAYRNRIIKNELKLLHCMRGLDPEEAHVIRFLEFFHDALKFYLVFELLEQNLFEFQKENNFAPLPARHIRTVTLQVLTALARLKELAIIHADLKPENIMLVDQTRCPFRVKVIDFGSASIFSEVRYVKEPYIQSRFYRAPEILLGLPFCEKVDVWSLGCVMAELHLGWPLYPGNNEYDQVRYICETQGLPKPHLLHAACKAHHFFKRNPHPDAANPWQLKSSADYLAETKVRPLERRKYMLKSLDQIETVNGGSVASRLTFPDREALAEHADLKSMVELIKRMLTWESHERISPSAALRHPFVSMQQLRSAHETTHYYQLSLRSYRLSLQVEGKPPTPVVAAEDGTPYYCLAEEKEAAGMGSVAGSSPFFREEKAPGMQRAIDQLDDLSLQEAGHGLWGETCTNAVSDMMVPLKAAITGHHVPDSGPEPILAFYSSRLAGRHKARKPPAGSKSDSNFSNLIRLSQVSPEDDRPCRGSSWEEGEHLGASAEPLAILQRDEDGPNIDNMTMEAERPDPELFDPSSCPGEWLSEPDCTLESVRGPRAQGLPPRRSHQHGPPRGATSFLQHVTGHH
The assay is described as follows: Inhibition of HIPK4 (unknown origin).

A short description of assay [2]: Inhibition of cardiac sodium channel (unknown origin). Also on record: species or system Homo sapiens.

A word on the IC50: it is the midpoint of a concentration-inhibition curve. Lower therefore signals higher potency. Turning to `COC(=O)Nc1cc(-c2cnc(OC[C@@](C)(N)CC(C)C)c(C)c2)ccn1`, inhibition in assay [1] was half-maximal at 1.8 µM (IC50).
In assay [2], `CC(C)C[C@](C)(N)COc1cnc(-c2ccnc(C(F)F)c2)cc1C(F)F` registered an IC50 of 5.4 µM.
